US9139568B2 (Merck Patent GmbH, priority 2011, dated 2015)

How the values were obtained:
P70S6K = P70S6K (Homo sapiens (Human), UniProt P23443, T412E); test: P70S6K Enzyme Assay; assay type: biochemical; conditions: P70S6K T412E mutant, 24 μM ATP, mobility shift (Caliper)
Experimental: P70S6K inhibitor compounds are diluted and plated in 96 well plates. […] The reaction is incubated for 90 min at 25° C., before the addition of 10 mM EDTA to stop the reaction. The proportion of substrate and product (phosphorylated) peptide is analysed on a Caliper Life Sciences Lab Chip 3000, using a pressure of −1.4 psi, and upstream and downstream voltages of −3000 and −700 respectively. Product peaks are resolved before substrate peaks on the resulting chromatograms.

AKT = AKT (Homo sapiens (Human), UniProt P31749); test: AKT Enyzme Assay; assay type: biochemical; conditions: His-AKT (Full Length), 160 uM ATP, mobility shift (Caliper)
AKT, sequence (P31749 whole entry): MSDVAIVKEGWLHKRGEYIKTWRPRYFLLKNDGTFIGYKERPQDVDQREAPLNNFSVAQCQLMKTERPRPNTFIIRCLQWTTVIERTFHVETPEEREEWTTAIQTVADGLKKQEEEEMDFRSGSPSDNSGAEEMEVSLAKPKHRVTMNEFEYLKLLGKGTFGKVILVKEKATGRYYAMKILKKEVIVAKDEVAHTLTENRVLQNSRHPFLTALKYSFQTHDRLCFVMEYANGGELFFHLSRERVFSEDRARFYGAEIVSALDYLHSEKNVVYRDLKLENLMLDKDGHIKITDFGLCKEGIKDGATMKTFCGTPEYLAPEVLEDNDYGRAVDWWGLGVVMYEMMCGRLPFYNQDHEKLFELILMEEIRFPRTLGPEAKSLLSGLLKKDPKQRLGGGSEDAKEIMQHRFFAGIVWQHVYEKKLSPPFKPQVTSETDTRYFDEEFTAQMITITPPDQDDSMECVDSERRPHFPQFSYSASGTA
Experimental: A TTP Mosquito liquid handling instrument is used to place 125 nl of the appropriate concentration of inhibitor in 100% DMSO (for a dose response curve calculation) into each well of a 384-well plate.
The reaction is incubated for 90 min at 25 C, and then stopped by the addition of 70 μl of Stop buffer (100 mM HEPES pH 7.5, 0.015% Brij-35, 10 mM EDTA (Sigma, E7889)).
The plate is read on a Caliper LC 3000 in an Off-Chip mobility shift assay format, using the following parameters for a 12-sipper chip: screening pressure −2.3 psi, upstream voltage −500, and downstream voltage −3000. These conditions cause unphosphorylated substrate and phosphorylated product peptide to resolve as separate peaks allowing direct measurement of percentage of conversion of substrate to product. The percent conversion can be plotted against concentration of inhibitor to produce a sigmoidal dose response curve, from which an IC50 can be calculated.

P70S6K, sequence (P23443 1-421 T412E): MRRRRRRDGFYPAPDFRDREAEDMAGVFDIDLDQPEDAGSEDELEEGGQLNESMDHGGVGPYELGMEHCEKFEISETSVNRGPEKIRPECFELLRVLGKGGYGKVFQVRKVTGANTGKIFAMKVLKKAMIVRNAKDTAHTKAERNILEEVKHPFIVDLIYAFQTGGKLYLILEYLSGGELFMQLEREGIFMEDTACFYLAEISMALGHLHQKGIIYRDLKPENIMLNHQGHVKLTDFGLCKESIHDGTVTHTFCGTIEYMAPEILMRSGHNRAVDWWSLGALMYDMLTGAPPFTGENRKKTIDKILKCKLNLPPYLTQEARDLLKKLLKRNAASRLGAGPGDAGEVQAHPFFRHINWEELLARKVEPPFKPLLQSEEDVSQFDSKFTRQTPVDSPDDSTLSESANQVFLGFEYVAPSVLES

Structure (SMILES)	IC50 (P70S6K)	IC50 (AKT)
NC(=O)c1ccc(N(CCc2ccccc2)[C@@H]2CCCNC2)c2cncnc12 [Example 105, 5-[phenethyl-[(3R)-3-piperidyl]amino]quinazoline-8-carboxamide]	11000 nM	> 100000 nM
NC(=O)c1ccc(N[C@H]2CNCC[C@@H]2c2ccc(F)c(Cl)c2)c2cncnc12 (single isomer, unassigned) [Example 77]	50 nM	850 nM
CNCC1CCCN(c2ccc(C(N)=O)c3ncncc23)C1 (racemic) [Example 59, 5-(3-((methylamino)methyl)piperidin-1-yl)quinazoline-8-carboxamide]	5900 nM	18000 nM
NC(=O)c1ccc(NC2CNCCC2c2ccc(F)cc2)c2cncnc12 (stereo not drawn) [Example 79, 5-((4-(4-fluorophenyl)piperidin-3-yl)amino)quinazoline-8-carboxamide]	290 nM	2000 nM
NC(=O)c1ccc(NCCc2ccc(F)c(F)c2)c2cncnc12 [Example 101, 5-[2-(3,4-difluorophenyl)ethylamino]quinazoline-8-carboxamide]	360 nM	41000 nM
NC(=O)c1ccc(N2CCC(c3cccc(C(F)(F)F)c3)C(N)C2)c2cncnc12 (racemic) [Example 107, 5-[3-Amino-4-(3-trifluoromethyl-phenyl)-piperidin-1-yl]-quinazoline-8-carboxylic acid amide]	380 nM	8100 nM
NC(=O)c1ccc(N2CCC(CCc3ccccc3)C2)c2cncnc12 (racemic) [Example 64, 5-(3-phenethylpyrrolidin-1-yl)quinazoline-8-carboxamide]	240 nM	3100 nM
NC(=O)c1ccc(NC[C@@H]2CCNC2)c2cncnc12 [Example 60, (R)-5-((pyrrolidin-3-ylmethyl)amino)quinazoline-8-carboxamide]	4800 nM	> 100000 nM
NC(=O)c1ccc(NC[C@H]2CCNC2)c2cncnc12 [Example 61, (S)-5-((pyrrolidin-3-ylmethyl)amino)quinazoline-8-carboxamide]	1700 nM	> 100000 nM
NC(=O)c1ccc(N[C@H]2CNCC[C@@H]2c2ccc(F)cc2)c2cncnc12 (single isomer, unassigned) [Example 80]	290 nM	2200 nM
NC(=O)c1ccc(NCCc2cccc(F)c2)c2cncnc12 [Example 99, 5-[2-(3-fluorophenyl)ethylamino]quinazoline-8-carboxamide]	120 nM	2400 nM
NC(=O)c1ccc(N2CCC(O)(c3ccccc3)C2)c2cncnc12 (racemic) [Example 66, 5-(3-hydroxy-3-phenylpyrrolidin-1-yl)quinazoline-8-carboxamide]	1800 nM	> 100000 nM
NC(=O)c1ccc(NC2CNCC2c2cccc(C(F)(F)F)c2)c2cncnc12 (stereo not drawn) [Example 71, 5-((4-(3-(trifluoromethyl)phenyl)pyrrolidin-3-yl)amino)quinazoline-8-carboxamide]	21 nM	4500 nM
CN(C)C(CNc1ccc(C(N)=O)c2ncncc12)c1cccc(Cl)c1 (racemic) [Example 68, 5-((2-(3-chlorophenyl)-2-(dimethylamino)ethyl)amino)quinazoline-8-carboxamide]	2600 nM	> 100000 nM
NC(=O)c1ccc(NCC(c2ccccc2)N2CCNCC2)c2cncnc12 (racemic) [Example 69, 5-((2-phenyl-2-(piperazin-1-yl)ethyl)amino)quinazoline-8-carboxamide]	–	10000 nM
NC(=O)c1ccc(N2CC[C@@](N)(C(=O)Nc3ccc(F)c(C(F)(F)F)c3)C2)c2cncnc12 (single isomer, unassigned) [Example 116]	520 nM	–
NC(=O)c1ccc(NCC2(C(=O)Nc3ccccc3)CCNC2)c2cncnc12 (racemic) [Example 12, 5-(((3-(phenylcarbamoyl)pyrrolidin-3-yl)methyl)amino)quinazoline-8-carboxamide]	650 nM	–
NC(=O)c1ccc(N2CCC(NC(=O)c3ccc(F)c(F)c3)C2)c2cncnc12 (racemic) [Example 50, 5-(3-(3,4-difluorobenzamido)pyrrolidin-1-yl)quinazoline-8-carboxamide]	380 nM	–
NC(=O)c1ccc(NC(=O)C2C[C@@H](c3ccccc3)CN2)c2cccnc12 (stereo partly drawn) [Example 28, 5-((4S)-4-phenylpyrrolidine-2-carboxamido)quinoline-8-carboxamide]	578 nM	–
NC(=O)c1ccc(NC(CN2CCCC2)c2ccccc2)c2cccnc12 (stereo not drawn) [Example 39]	> 1000 nM	–

Structure (SMILES)	IC50 (P70S6K)	IC50 (AKT)
NC(=O)c1ccc(N2CC[C@@H](CNC(=O)c3ccc(F)c(F)c3)C2)c2cncnc12 (single isomer, unassigned) [Example 115]	450 nM	–
NC(=O)c1ccc(NC2CNC[C@H]2c2cc(F)cc(Cl)c2)c2cccnc12 (stereo partly drawn) [Example 26, 5-(((4R)-4-(3-chloro-5-fluorophenyl)pyrrolidin-3-yl)amino)quinoline-8-carboxamide]	350 nM	–
CNC[C@@H](Nc1ccc(C(N)=O)c2ncccc12)c1cccc(F)c1 [Example 16, (S)-5-((1-(3-fluorophenyl)-2-(methylamino)ethyl)amino)quinoline-8-carboxamide]	> 1000 nM	–
NC(=O)c1ccc(NC2CNC[C@@H]2c2ccc(OC(F)(F)F)cc2)c2cncnc12 (mixture of isomers) [Example 1, 5-((4-(4-(trifluoromethoxy)phenyl)pyrrolidin-3-yl)amino)quinazoline-8-carboxamide]	23 nM	–
NC(=O)c1ccc(N2CCC(N)(CNC(=O)c3ccc(F)cc3O)C2)c2cncnc12 (racemic) [Example 10, 5-(3-amino-3-((4-fluoro-2-hydroxybenzamido)methyl)pyrrolidin-1-yl)quinazoline-8-carboxamide]	> 1000 nM	–
NC(=O)c1ccc(N2CCN(c3ccccc3Cl)CC2)c2cncnc12 [Example 119, 5-[4-(2-chloro-phenyl)-piperazin-1-yl]-quinazoline-8-carboxylic acid amide]	400 nM	–
NC(=O)c1ccc(N2CC[C@](N)(C(=O)Nc3ccc(F)c(C(F)(F)F)c3)C2)c2cncnc12 (single isomer, unassigned) [Example 117]	380 nM	–
NC(=O)c1ccc(N2CC[C@H](c3cccc(F)c3)[C@H](N)C2)c2cncnc12 (racemic) [Example 88, 5-[(3S,4R)-3-Amino-4-(3-fluoro-phenyl)-piperidin-1-yl]-quinazoline-8-carboxylic acid amide]	17100 nM	–
NC(=O)c1ccc(NCc2ccccc2F)c2cccnc12 [Example 32, 5-(2-Fluorobenzylamino)-quinoline-8-carboxamide]	> 1000 nM	–
NC(=O)c1ccc(NC2CNCC[C@@H]2c2cccc(F)c2)c2cccnc12 (mixture of isomers) [Example 25, 5-((4-(3-fluorophenyl)piperidin-3-yl)amino)quinoline-8-carboxamide]	520 nM	–
NC(=O)c1ccc(NC(=O)C(N)c2ccccc2)c2cccnc12 (racemic) [Example 29, 5-(2-amino-2-phenylacetamido)quinoline-8-carboxamide]	> 1000 nM	–
NC(=O)c1ccc(N2CC[C@H](c3ccc(F)cc3)[C@@H](N)C2)c2cncnc12 (racemic) [Example 87, 5-[(3R,4R)-3-Amino-4-(4-fluoro-phenyl)-piperidin-1-yl]-quinazoline-8-carboxylic acid amide]	7100 nM	–
NC(=O)c1ccc(N2CCC(N)(C(=O)Nc3ccccc3)C2)c2cncnc12 (racemic) [Example 15, 5-(3-amino-3-(phenylcarbamoyl)pyrrolidin-1-yl)quinazoline-8-carboxamide]	2300 nM	–
NC(=O)c1ccc(NCCCc2ccccc2)c2cccnc12 [Example 41, 5-(Phenylpropylamino)-quinoline-8-carboxamide]	> 1000 nM	–
NC(=O)c1ccc(N2CCC(CNC(=O)c3ccc(C(F)(F)F)cc3F)C2)c2cncnc12 (racemic) [Example 55, 5-(3-((2-fluoro-4-(trifluoromethyl)benzamido)methyl)pyrrolidin-1-yl)quinazoline-8-carboxamide]	290 nM	–
NC(=O)c1ccc(N2CCC(c3ccc(C(F)(F)F)cc3)C(N)C2)c2cncnc12 (racemic) [Example 83, 5-(3-amino-4-(4-(trifluoromethyl)phenyl)piperidin-1-yl)quinazoline-8-carboxamide]	350 nM	–
NC(=O)c1ccc(N2CCN(c3ccccc3F)CC2)c2cncnc12 [Example 121, 5-[4-(2-fluorophenyl)-piperazin-1-yl]-quinazoline-8-carboxylic acid amide]	12000 nM	–
NC(=O)c1ccc(NCc2cccc(Cl)c2)c2cccnc12 [Example 34, 5-(3-Chlorobenzylamino)-quinoline-8-carboxamide]	140 nM	–
NC(=O)c1ccc(N2CCC(CNC(=O)c3ccc(F)c(F)c3)C2)c2cncnc12 (racemic) [Example 54, 5-(3-((3,4-difluorobenzamido)methyl)pyrrolidin-1-yl)quinazoline-8-carboxamide]	233 nM	–
NC(=O)c1ccc(NCC2(C(=O)Nc3ccccc3)CCNC2)c2cccnc12 (racemic) [Example 20, 5-(((3-(phenylcarbamoyl)pyrrolidin-3-yl)methyl)amino)quinoline-8-carboxamide]	> 1000 nM	–
